Results: article PMC7810238, “Design, synthesis, and evaluation of Bothrops venom serine protease peptidic inhibitors” (The Journal of Venomous Animals and Toxins Including …, 2021)
Where no end group is shown, it is not given here. [ ]: non-standard residue; d: D form.

Legend:
Bothrops spp venom SVSPs = details: ref [9]; cited from earlier work
Experimental: In this context, the use of selective SVSPs inhibitory compounds, in association with available commercial antivenoms, could be a starting point for studies aiming snakebite treatment efficacy improvement. Therefore, in the present study, small peptides were evaluated as potential SVSPs inhibitors.

batroxobin = batroxobin thrombin-like activity, chromogenic substrate S-2238; assay type: biochemical, B. moojeni; details: for inhibition of batroxobin activity: peptide 60 µg/mL, absorbance 405 nm
Experimental: (§1) Batroxobin and human thrombin activities were evaluated using the chromogenic substrate S-2238 (Chromogenix). Briefly, batroxobin (0.8 U) or human thrombin (0.8U) was pre-incubated at 37°C for 10 minutes with different concentrations (0 to 1 mg/mL for batroxobin, and 60 µg/mL, for human thrombin), of each peptide in Tris/HCl buffer […], containing CaCl2 0.02% (v/v), pH 8.0. Enzymatic reaction was initiated by addition of substrate (200µM), followed by incubation at 37°C, for 20 minutes. When serine protease activity from BjV was evaluated using the chromogenic substrate S2238, 5 µg of BjV and 60 µg/mL of each peptide were employed.
(§2) For all assays using chromogenic substrates, hydrolysis was quantified by evaluation of absorbance at 405 nm, in a spectrophotometer SpectraMax® Paradigm® Multi-Mode reader from Molecular Devices (Sunnyvale, CA).
(§3) SVSPs activity from BjV was also evaluated using the fluorogenic substrate Abz-Ser. Briefly, BjV (5 µg/100µL) was pre-incubated at 37 °C for 10 minutes with 100 µg/mL of each peptide, in PBS pH 7.4 containing 20mM NaCl. Enzymatic reaction was initiated by addition of substrate (10 µM), followed by incubation at 37°C, for 20 minutes. The substrate hydrolysis was monitored following fluorescence emitted at 420 nm, under excitation at 320 nm in a spectrofluorimeter (Victor 3^TM Perkin- Elmer, Boston, MA, USA), as described by Araujo et al. (2000). All the experiments were made in triplicate.
(§4) Figure 2. Evaluation of the effects of synthetic peptides on batroxobin and on human serine proteases activities. (A) Batroxobin activity was evaluated after 20 min, at 37 °C, using the chromogenic substrate S-2238 and the indicated concentrations of synthetic peptides. (B, C, D) Commercial hSPs had their activity evaluated after 20 min, at 37 °C, using their specific chromogenic substrates and batroxobin inhibitory peptides at 60 µg/mL.

human thrombin = human thrombin activity, chromogenic substrate S-2238; assay type: biochemical; details: peptide 60 µg/mL; human thrombin 0.8U; pre-incubated 10 min 37°C, Tris/HCl 0.15mM, CaCl2 0.02%, pH 8.0; S-2238 200 µM, 20 min 37°C; 405 nm; triplicate
Experimental: as §1, §2
as §3, with “All the experiments were made in triplicate.” left out

human factor Xa = assay: proteolytic activity of human factor Xa, chromogenic substrate CS-11(22); assay type: biochemical; details: peptide 60 µg/mL; factor Xa 20nM; pre-incubated 10 min 37°C, Tris/HCl 20 mM, NaCl 150 mM, pH 7.4; CS-11(22) 100µM, 20 min 37°C; 405 nm; triplicate
Experimental: Proteolytic activity of human factor Xa was evaluated using the chromogenic substrate CS-11(22) (Hyphen). Briefly, factor Xa (20nM) was pre-incubated for 10 minutes at 37°C with 60 µg/mL of each peptide in Tris/HCl buffer 20 mM, pH 7.4 containing NaCl 150 mM. Enzymatic reaction was initiated by the addition of substrate (100µM), followed by incubation at 37°C, for 20 minutes.
as §2
as §3, with “Enzymatic reaction was initiated by addition of substrate (10 µM), followed by incubation at 37°C, for 20 minutes.” left out, “All the experiments were made in triplicate.” left out
as §4, with “Evaluation of the effects of synthetic peptides on batroxobin and on human serine proteases activities.” left out

human trypsin = assay: proteolytic activity of human trypsin, chromogenic substrate BAPNA; assay type: biochemical; details: peptide 60 µg/mL; trypsin 126 nM; pre-incubated 10 min 37°C, Tris/HCl 50 mM, CaCl2 0.02%, pH 8.0; BAPNA 1.25 mM, 20 min 37°C; 405 nm; triplicate
Experimental: Proteolytic activity of human trypsin was evaluated using the chromogenic substrate BAPNA (Sigma). Briefly, trypsin (126 nM) was pre-incubated for 10 minutes at 37°C with 60 µg/mL of each peptide in Tris/HCl buffer 50 mM containing CaCl2 0.02% (v/v), pH 8.0. Enzymatic reaction was initiated by addition of substrate (1.25 mM), followed by incubation at 37°C, for 20 minutes.
as §2
as §3, with “Enzymatic reaction was initiated by addition of substrate (10 µM), followed by incubation at 37°C, for 20 minutes.” left out, “All the experiments were made in triplicate.” left out
as §4, with “Evaluation of the effects of synthetic peptides on batroxobin and on human serine proteases activities.” left out

[1] = tested on: Bothrops jararaca venom (BjV) serine proteases; assay: BjV serine protease (thrombin-like) activity, chromogenic substrate S2238; assay type: biochemical; details: BjV 5 µg, peptide 60 µg/mL or 100 µg/mL, S2238 200 µM or 2 mM, 20 min 37°C, 405 nm, triplicate
Experimental: as §1, §2
as §3, with “All the experiments were made in triplicate.” left out

[2] = tested on: Bothrops jararaca venom (BjV) SVSPs; assay: BjV SVSPs activity, fluorogenic substrate Abz-Ser; assay type: biochemical; details: peptide 100 µg/mL; for inhibition of BjV serine protease activity on Abz-Ser: substrate Abz-Ser 10 µM, BjV 5 µg/100µL, pre-incubated 10 min 37°C, PBS pH 7.4, 20mM NaCl, 20 min 37°C, fluorescence 420 nm (ex 320 nm), triplicate
Experimental: as §3
Figure 3. Evaluation of synthetic peptides on Bothrops venom serine-proteases. BjV was pre-incubated with 100 µg/mL of pepB or pepC and a serine proteases activity was evaluated after 20 min, at 37 °C, with (A) 2 mM of substrate S2238 or (B) 10 µM of substrate Abz-Ser.

[3] = batroxobin 0.8 U, pre-incubated 10 min 37°C, Tris/HCl 0.15mM, CaCl2 0.02%, pH 8.0, S-2238 200 µM, 20 min 37°C, triplicate

Row | Substance | selectivity as substrate for Bothrops spp venom SVSPs (Bothrops spp venom SVSPs) | inhibition of batroxobin activity (batroxobin; [3]) | effect on catalytic activity of human thrombin (human thrombin) | effect on catalytic activity of human factor Xa (human factor Xa) | effect on catalytic activity of human trypsin (human trypsin) | inhibition of BjV thrombin-like activity [1] | inhibition of BjV serine protease activity on Abz-Ser [2] | inhibition of batroxobin activity (in words) (batroxobin; tested until 1 mg/mL, batroxobin 0.8 U, pre-incubated 10 min 37°C, Tris/HCl 0.15mM, CaCl2 0.02%, pH 8.0, S-2238 200 µM, 20 min 37°C, triplicate) | efficiency on batroxobin relative to pepC (batroxobin; pepB compared with pepC) | inhibitory effect of pepB relative to pepC on BjV with Abz-Ser ([2]; pepB compared with pepC)
1 | Abz-RPPGFSPFRQ-EDDnp [Abz-Ser] | selective for Bothrops spp venom SVSPs |  |  |  |  |  |  |  |  | 
2 | PFYQSS [pepC, 6-mer peptide related to pepA, a Ser instead of Ala] |  | 18 ± 4% | none of the peptides inhibited human serine proteases | none of the peptides inhibited human serine proteases | none of the peptides inhibited human serine proteases | 18 ± 2% | 19.3 ± 0.7% |  |  | 
3 | PFYQAS [pepA, 6-mer peptide designed based on carboxyl-terminus of the substrate Abz-Ser] |  |  |  |  |  |  |  | did not inhibit batroxobin activity |  | 
4 | PF[dR]QAS [pepB, 6-mer peptide related to pepA, D-Arg replacing Tyr] |  | 36 ± 7% | none of the peptides inhibited human serine proteases | none of the peptides inhibited human serine proteases | none of the peptides inhibited human serine proteases | 15 ± 3% | 5.4 ± 0.7% |  | twice more efficient than pepC | 4 times less efficient
